Measured values from ChEMBL document CHEMBL1821610 (Bioorg Med Chem Lett, 2011).
Values after ≈ are worked out from the molar mass of the structure shown. One block for each molecule: values may come before it.

How the values were obtained:
Plasmodium falciparum [1] = experiment: Antimalarial activity against Plasmodium falciparum infected in A-positive human erythrocytes assessed as [3H]-hypoxanthine uptake after 24 hrs by liquid scintillation counter; assay type: functional, organism-based
[2] = Partition coefficient, log P of the compound; assay type: physicochemical; conditions: octanol/water
[3] = Half life in Beagle dog at 0.05 mg/kg, iv; assay type: ADME, organism-based, Canis lupus familiaris; design: dose 0.05 mg/kg, route intravenous; conditions: in vivo
[4] = Oral bioavailability in Beagle dog at 2 mg/kg; assay type: ADME, organism-based, Canis lupus familiaris; conditions: in vivo
[5] = Oral bioavailability in CD1 mouse at 10 mg/kg; assay type: ADME, organism-based; conditions: in vivo
[6] = Clearance in CD1 mouse at 0.2 mg/kg, iv; assay type: ADME, organism-based; design: dose 0.2 mg/kg, route intravenous; conditions: in vivo
[7] = Volume of distribution in CD1 mouse at 0.2 mg/kg, iv; assay type: ADME, organism-based; design: dose 0.2 mg/kg, route intravenous; conditions: in vivo
[8] = Half life in CD1 mouse at 0.2 mg/kg, iv; assay type: ADME, organism-based; design: dose 0.2 mg/kg, route intravenous; conditions: in vivo
[9] = Volume of distribution in Beagle dog at 0.05 mg/kg, iv; assay type: ADME, organism-based, Canis lupus familiaris; design: dose 0.05 mg/kg, route intravenous; conditions: in vivo
Mus musculus = experiment: Cmax in CD1 mouse at 10 mg/kg, po; assay type: ADME, organism-based; design: dose 10 mg/kg, route oral; conditions: in vivo
[10] = Chromatographic hydrophobicity index of the compound at pH 2 by rapid gradient HPLC analysis; assay type: physicochemical
Canis familiaris = experiment: Cmax in Beagle dog at 2 mg/kg, po; assay type: ADME, organism-based, Canis lupus familiaris; design: dose 2 mg/kg, route oral; conditions: in vivo
[11] = Solubility of the compound in fasted state simulated intestinal fluid at pH 6.8; assay type: physicochemical
[12] = Chromatographic hydrophobicity index of the compound at pH 7.4 by rapid gradient HPLC analysis; assay type: physicochemical
[13] = Solubility of the compound in fed state simulated intestinal fluid at pH 5.0; assay type: physicochemical
[14] = Clearance in Beagle dog at 0.05 mg/kg, iv; assay type: ADME, organism-based, Canis lupus familiaris; design: dose 0.05 mg/kg, route intravenous; conditions: in vivo
[15] = Solubility of the compound in simulated gastric fluid at pH 1.2; assay type: physicochemical; conditions: simulated gi fluid
Plasmodium falciparum [16] = experiment: Antimalarial activity against Plasmodium falciparum in po dosed HM-IL2R gamma null mouse assessed as reduction in parasitemia administered once a day for 4 days; assay type: functional; conditions: 96 h
[17] = Dissociation constant, pKa of the compound; assay type: physicochemical
[18] = Solubility of the compound in PBS at pH 7.4; assay type: physicochemical
[19] = Chromatographic hydrophobicity index of the compound at pH 10.5 by rapid gradient HPLC analysis; assay type: physicochemical

SMILES: Cc1[nH]c(C(=O)O)c(-c2ccc(Oc3ccc(OC(F)(F)F)cc3)cc2)c(=O)c1Cl
IC50 (Plasmodium falciparum [1]): > 250 nM

SMILES: Cc1[nH]c(CN(C)C)c(-c2ccc(Oc3ccc(OC(F)(F)F)cc3)cc2)c(=O)c1Cl
IC50 (Plasmodium falciparum [1]): > 250 nM

SMILES: Cc1[nH]c(CN2CCCC2)c(-c2ccc(Oc3ccc(OC(F)(F)F)cc3)cc2)c(=O)c1Cl
IC50 (Plasmodium falciparum [1]): > 250 nM

SMILES: Cc1[nH]c(CO)c(Cl)c(=O)c1-c1ccc(Oc2cccc(C(F)(F)F)c2)cc1
IC50 (Plasmodium falciparum [1]): 120 nM

SMILES: Cc1[nH]c(CO)c(Cl)c(=O)c1-c1ccc(Oc2ccc(OC(F)(F)F)cc2)cc1
IC50 (Plasmodium falciparum [1]): 130 nM

SMILES: Cc1[nH]c(C)c(-c2ccc(Oc3cccc(C(F)(F)F)c3)cc2)c(=O)c1Cl
IC50 (Plasmodium falciparum [1]): 3 nM

SMILES: Cc1[nH]c(CN2CCOCC2)c(-c2ccc(Oc3ccc(OC(F)(F)F)cc3)cc2)c(=O)c1Cl
IC50 (Plasmodium falciparum [1]): > 250 nM

SMILES: Cc1[nH]c(C(=O)N(C)C)c(-c2ccc(Oc3ccc(OC(F)(F)F)cc3)cc2)c(=O)c1Cl
IC50 (Plasmodium falciparum [1]): > 250 nM

SMILES: Cc1[nH]c(CO)c(-c2ccc(Oc3cccc(C(F)(F)F)c3)cc2)c(=O)c1Cl
IC50 (Plasmodium falciparum [1]): 3 nM

logP [2]: 4.4
half-life [3]: 42 h
bioavailability [4]: 16%
bioavailability [5]: 50%
clearance [6]: 3 mL/min/kg
Vd [7]: 1 L/kg
half-life [8]: 3.8 h
Vd [9]: 2.8 L/kg
Cmax (Mus musculus): 1100 ng/mL
CHI [10]: 2.43
Cmax (Canis familiaris): 300 ng/mL
solubility [11]: 690 µg/mL (≈ 1620 µM)
CHI [12]: 2.42
solubility [13]: 2340 µg/mL (≈ 5500 µM)
clearance [14]: 0.8 mL/min/kg
solubility [15]: 372 µg/mL (≈ 874 µM)
pKa [17]: 9.73
solubility [18]: < 100 µg/mL
CHI [19]: 2.2
SMILES: Cc1[nH]c(CO)c(-c2ccc(Oc3ccc(OC(F)(F)F)cc3)cc2)c(=O)c1Cl
IC50 (Plasmodium falciparum [1]): 2 nM
ED50 (Plasmodium falciparum [16]): 0.6 mg/kg

SMILES: Cc1[nH]c(CN2CCOCC2)c(Cl)c(=O)c1-c1ccc(Oc2ccc(OC(F)(F)F)cc2)cc1
IC50 (Plasmodium falciparum [1]): > 250 nM

logP [2]: 4.8
half-life [3]: 143 h
bioavailability [4]: 4.4%
bioavailability [5]: 20%
clearance [6]: 0.6 mL/min/kg
Vd [7]: 1.2 L/kg
half-life [8]: 24.1 h
Vd [9]: 2.9 L/kg
Cmax (Mus musculus): 900 ng/mL
CHI [10]: 2.75
Cmax (Canis familiaris): 30 ng/mL
solubility [11]: 500 µg/mL (≈ 1220 µM)
CHI [12]: 2.79
solubility [13]: 700 µg/mL (≈ 1710 µM)
clearance [14]: 0.2 mL/min/kg
solubility [15]: 287 µg/mL (≈ 700 µM)
pKa [17]: 10.1
solubility [18]: < 100 µg/mL
CHI [19]: 2.77
SMILES: Cc1[nH]c(C)c(-c2ccc(Oc3ccc(OC(F)(F)F)cc3)cc2)c(=O)c1Cl
IC50 (Plasmodium falciparum [1]): 7 nM

SMILES: Cc1[nH]c(CN(C)C)c(Cl)c(=O)c1-c1ccc(Oc2ccc(OC(F)(F)F)cc2)cc1
IC50 (Plasmodium falciparum [1]): > 250 nM

SMILES: Cc1[nH]c(CN2CCCC2)c(Cl)c(=O)c1-c1ccc(Oc2ccc(OC(F)(F)F)cc2)cc1
IC50 (Plasmodium falciparum [1]): > 250 nM
